According to the NIST ThermoML archive (doi:10.1021/je1005533):

Assays:
[1] = refractive index (other wavelength) (dimensionless); conditions: 101.3 kPa, Liquid, Wavelength=632.8 nm, Standard Abbe refractometry
[2] = refractive index (other wavelength) (dimensionless); xn = mol fraction of the nth substance listed; conditions: 101.3 kPa, Liquid, Wavelength=632.8 nm, Standard Abbe refractometry

COC(=O)OC [dimethyl carbonate]
[1]
Conditions | refractive index
308.25 K | 1.3607
309.26 K | 1.3602
310.32 K | 1.3597
311.36 K | 1.3592
312.44 K | 1.3587
313.49 K | 1.3582
314.53 K | 1.3577
315.56 K | 1.3572
316.66 K | 1.3567
317.67 K | 1.3562
318.72 K | 1.3557
327.67 K | 1.3514

COC(=O)OC [dimethyl carbonate] + CCCCCCCCCCCCCCCC
[2], x1 = 1
Conditions | refractive index
308.25 K | 1.3607
309.26 K | 1.3602
310.32 K | 1.3597
311.36 K | 1.3592
312.44 K | 1.3587
313.49 K | 1.3582
314.53 K | 1.3577
315.56 K | 1.3572
316.66 K | 1.3567
317.67 K | 1.3562
318.72 K | 1.3557

COC(=O)OC [dimethyl carbonate] + CCCCCCCCCCCCCCCCCC
Conditions | refractive index
[2], 327.67 K, x1 = 1 | 1.3514

CCCCCCCCCCCCCCCC [hexadecane]
[1]
Conditions | refractive index
308.21 K | 1.427
309.24 K | 1.4265
310.21 K | 1.4261
311.24 K | 1.4256
312.3 K | 1.4252
313.34 K | 1.4248
314.44 K | 1.4244
315.54 K | 1.4239
316.55 K | 1.4235
317.56 K | 1.4231
318.61 K | 1.4226

CCCCCCCCCCCCCCCCCC [octadecane]
Conditions | refractive index
[1], 327.67 K | 1.4231

CCCCCCCCCCCCCCCCCC [octadecane] + COC(=O)OC
[2], 327.67 K
Conditions | refractive index
x2 = 0 | 1.4231
x2 = 0.099 | 1.4203
x2 = 0.202 | 1.4169
x2 = 0.299 | 1.4132
x2 = 0.399 | 1.4089
x2 = 0.509 | 1.4034
x2 = 0.601 | 1.3979
x2 = 0.701 | 1.3907
x2 = 0.807 | 1.3806
x2 = 0.902 | 1.3685
